Measurements as given in ChEMBL document CHEMBL4041545, “Design, synthesis and biological activities of tetrandrine and fangchinoline derivatives as antitumer agents” (Bioorg Med Chem Lett, 2017).

Legend:
HepG2 [1] = test: Antiproliferative activity against human HepG2 cells after 48 hrs by MTT assay; format: functional, cell-based; conditions: HepG2, 48 h
MCF7 [2] = test: Antiproliferative activity against human MCF7 cells after 48 hrs by MTT assay; format: functional, cell-based; conditions: MCF7, 48 h
HepG2 [3] = test: Induction of apoptosis in human HepG2 cells assessed as live cells at 0.5 uM after 48 hrs by Annexin-V FITC/propidium iodide staining based flow cytometry (reference value: 86.49%); format: functional
HepG2 [4] = test: Induction of apoptosis in human HepG2 cells assessed as early apoptotic cells at 0.5 uM after 48 hrs by Annexin-V FITC/propidium iodide staining based flow cytometry (reference value: 6.62%); format: functional
HepG2 [5] = test: Induction of apoptosis in human HepG2 cells assessed as late apoptotic cells at 0.5 uM after 48 hrs by Annexin-V FITC/propidium iodide staining based flow cytometry (reference value: 5.53%); format: functional
HepG2 [6] = test: Induction of apoptosis in human HepG2 cells assessed as necrotic cells at 0.5 uM after 48 hrs by Annexin-V FITC/propidium iodide staining based flow cytometry (reference value: 1.36%); format: functional
HepG2 [7] = test: Potency index, ratio of sunitinib IC50 to compound IC50 for human HepG2 cells; format: functional
MCF7 [8] = test: Potency index, ratio of sunitinib IC50 to compound IC50 for human MCF7 cells; format: functional

| Compound | IC50 (HepG2 [1]) [µM] | IC50 (MCF7 [2]) [µM] | also measured |
| --- | --- | --- | --- |
| CCOc1c(OC)cc2c3c1Oc1cc4c(cc1OC)CCN(C)[C@H]4Cc1ccc(cc1)Oc1cc(ccc1OC)C[C@@H]3N(C)CC2 | 5.52 | 8.55 | – |
| COc1ccc2cc1Oc1ccc(cc1)C[C@H]1c3cc(c(OC)cc3CCN1C)Oc1c(O)c(OC)cc3c1[C@H](C2)N(C)CC3 [FANGCHINOLINE] | 9.08 | 10.1 | – |
| COc1ccc2cc1Oc1ccc(cc1)C[C@H]1c3cc(c(OC)cc3CC[N+]1(C)CCO)Oc1c(OC)c(OC)cc3c1[C@H](C2)[N+](C)(CCO)CC3 (stereo not given in full) | 9.67 | 9.32 | – |
| COc1ccc2cc1Oc1ccc(cc1)C[C@H]1c3cc(c(OC)cc3CCN1C)Oc1c(OC(=O)CCl)c(OC)cc3c1[C@H](C2)N(C)CC3 | 4.12 | 7.13 | – |
| COc1ccc2cc1Oc1ccc(cc1)C[C@H]1c3cc(c(OC)cc3CC[N+]1(C)CC(=O)[O-])Oc1c(OC)c(OC)cc3c1[C@H](C2)N(C)CC3 (stereo not given in full) | 9.98 | 11.6 | – |
| COc1ccc2cc1Oc1ccc(cc1)C[C@H]1c3cc(c(OC)cc3CCN1C)Oc1c(OC(C)C)c(OC)cc3c1[C@H](C2)N(C)CC3 | 4.92 | 7.98 | – |
| COc1ccc2cc1Oc1ccc(cc1)C[C@H]1c3cc(c(OC)cc3CCN1C)Oc1c(OC)c(OC)cc3c1[C@H](C2)N(C)CC3 [FANCHININ] | 6.82 | 8.62 | – |
| CCOC(=O)C(CC)[N+]1(C)CCc2cc(OC)c3cc2[C@@H]1Cc1ccc(cc1)Oc1cc(ccc1OC)C[C@H]1c2c(cc(OC)c(OC)c2O3)CCN1C (stereo not given in full) | 15.7 | 16.6 | – |
| CCOC(=O)C(C)[N+]1(C)CCc2cc(OC)c3cc2[C@@H]1Cc1ccc(cc1)Oc1cc(ccc1OC)C[C@H]1c2c(cc(OC)c(OC)c2O3)CCN1C (stereo not given in full) | 13.1 | 10.1 | – |
| COc1ccc2cc1Oc1ccc(cc1)C[C@H]1c3cc(c(OC)cc3CCN1C)Oc1c(OC(C)=O)c(OC)cc3c1[C@H](C2)N(C)CC3 | 5.24 | 6.99 | – |
| COc1ccc2cc1Oc1ccc(cc1)C[C@H]1c3cc(c(OC)cc3CC[N+]1(C)CC(=O)[O-])Oc1c(OC)c(OC)cc3c1[C@H](C2)[N+](C)(CC(=O)[O-])CC3 (stereo not given in full) | 10 | 14.6 | – |

More lines, in order of falling IC50 (HepG2 [1]), values ahead:

| IC50 (HepG2 [1]) [µM] | IC50 (MCF7 [2]) [µM] | Compound | also measured |
| --- | --- | --- | --- |
| 4 | 6.56 | C/C=C/C=C/C(=O)Oc1c(OC)cc2c3c1Oc1cc4c(cc1OC)CCN(C)[C@H]4Cc1ccc(cc1)Oc1cc(ccc1OC)C[C@@H]3N(C)CC2 | – |
| 3.88 | 7.02 | CCC(Br)C(=O)Oc1c(OC)cc2c3c1Oc1cc4c(cc1OC)CCN(C)[C@H]4Cc1ccc(cc1)Oc1cc(ccc1OC)C[C@@H]3N(C)CC2 (stereo not given in full) | – |
| 3.79 | 7.34 | CCCCOc1c(OC)cc2c3c1Oc1cc4c(cc1OC)CCN(C)[C@H]4Cc1ccc(cc1)Oc1cc(ccc1OC)C[C@@H]3N(C)CC2 | – |
| 3.69 | 6.34 | COc1ccc2cc1Oc1ccc(cc1)C[C@H]1c3cc(c(OC)cc3CCN1C)Oc1c(OC(=O)c3ccccc3)c(OC)cc3c1[C@H](C2)N(C)CC3 | – |
| 3.59 | 6.12 | COc1ccc2cc1Oc1ccc(cc1)C[C@H]1c3cc(c(OC)cc3CCN1C)Oc1c(OC(=O)/C=C/c3ccccc3)c(OC)cc3c1[C@H](C2)N(C)CC3 | – |
| 2.95 | 2.57 | COc1ccc2cc1Oc1ccc(cc1)C[C@H]1c3cc(c(OC)cc3CCN1C)Oc1c(OC(=O)c3ccccc3[N+](=O)[O-])c(OC)cc3c1[C@H](C2)N(C)CC3 | – |
| 2.79 | 4.01 | COc1ccc2cc1Oc1ccc(cc1)C[C@H]1c3cc(c(OC)cc3CCN1C)Oc1c(OC(=O)c3cccnc3Cl)c(OC)cc3c1[C@H](C2)N(C)CC3 | – |
| 2.12 | 3.79 | COc1ccc2cc1Oc1ccc(cc1)C[C@H]1c3cc(c(OC)cc3CCN1C)Oc1c(OC(=O)c3ccc(Cl)cc3)c(OC)cc3c1[C@H](C2)N(C)CC3 | – |
| 2.11 | 2.99 | COc1ccc2cc1Oc1ccc(cc1)C[C@H]1c3cc(c(OC)cc3CCN1C)Oc1c(OC(=O)c3ccc([N+](=O)[O-])cc3)c(OC)cc3c1[C@H](C2)N(C)CC3 | – |
| 1.99 | 2.98 | COc1ccc2cc1Oc1ccc(cc1)C[C@H]1c3cc(c(OC)cc3CCN1C)Oc1c(OC(=O)c3cccc(Cl)c3)c(OC)cc3c1[C@H](C2)N(C)CC3 | – |
| 1.98 | 4.17 | COc1ccc2cc1Oc1ccc(cc1)C[C@H]1c3cc(c(OC)cc3CCN1C)Oc1c(OC(=O)c3cccnc3)c(OC)cc3c1[C@H](C2)N(C)CC3 | – |
| 1.78 | 5.12 | COc1ccc2cc1Oc1ccc(cc1)C[C@H]1c3cc(c(OC)cc3CCN1C)Oc1c(OC(=O)c3ccccc3OC(C)=O)c(OC)cc3c1[C@H](C2)N(C)CC3 | – |
| 1.69 | 1.99 | COc1ccc2cc1Oc1ccc(cc1)C[C@H]1c3cc(c(OC)cc3CCN1C)Oc1c(OC(=O)c3cccc([N+](=O)[O-])c3)c(OC)cc3c1[C@H](C2)N(C)CC3 | – |
| 1.32 | 3.51 | COc1ccc2cc1Oc1ccc(cc1)C[C@H]1c3cc(c(OC)cc3CCN1C)Oc1c(OC(=O)c3ccccc3Cl)c(OC)cc3c1[C@H](C2)N(C)CC3 | – |
| 0.65 | 4.54 | CCOc1ccc(C(=O)Oc2c(OC)cc3c4c2Oc2cc5c(cc2OC)CCN(C)[C@H]5Cc2ccc(cc2)Oc2cc(ccc2OC)C[C@@H]4N(C)CC3)cc1 | – |
| 0.55 | 3.45 | COc1ccc2cc1Oc1ccc(cc1)C[C@H]1c3cc(c(OC)cc3CCN1C)Oc1c(OCc3ccccc3)c(OC)cc3c1[C@H](C2)N(C)CC3 | Activity (HepG2 [3]): 55.6%; Activity (HepG2 [4]): 10.47%; Activity (HepG2 [5]): 28.16%; Activity (HepG2 [6]): 5.77%; Ratio IC50 (HepG2 [7]): 29.2; Ratio IC50 (MCF7 [8]): 7.37 |
